The text below walks through data of patent publication US20260263415A1, “Sulfonamides With Activity in Acute Kidney Injury and Fibrosis” (University of Pittsburgh - Of the Commonwealth System of …, priority 2023, published 2026).

The experiment relates to Zebrafish larvae injected with gentamicin. Put plainly: Zebrafish gentamicin kidney injury survival assay. In kind it is in vivo. How it is done: Potential efficacy was tested in zebrafish assays, essentially as follows. Zebrafish were maintained as described (see, e.g., Cianciolo Cosentino, C., et al. (2013) Histone deacetylase inhibitor enhances recovery after AKI. J Am Soc Nephrol, 24 (6), 943-53 and Skrypnyk, N. I., et al. (2016) Delayed treatment with PTBA analogs reduces postinjury renal fibrosis after kidney injury. Am J Physiol Renal Physiol, 310 (8), F705-F716), and embryos from Pitt AB wildtype were used. Zebrafish larvae were injected with a single dose of gentamicin at 3 dpf with 7 ng of gentamicin as previously described. Prior to the gentamicin injection, 3 dpf zebrafish larvae were anesthetized in 0.2% tricaine/E3 medium (5 mM NaCl, 0.33 mM CaCl2), 0.33 mM MgSO4, and 0.17 mM KCl). Glass capillaries were pulled to produce microneedles and were aspirated with […] of 7 ng/nL gentamicin solution diluted with filtered saline solution (Aspen Veterinary Resources, Cat No. 17861615). The larvae were injected with 1 nL gentamicin solution, delivered via the common cardinal vein. After injection, larvae were incubated in 50 μg/mL penicillin/streptomycin diluted in E3 medium. […]
Data were analyzed as compounds that extend survival as measured by Kaplan-Meier estimator.
Table A provides preliminary calculated hazard ratios (n=1) for tested compounds (see also FIGS. 3A and 3B). […]

As to `COC(=O)CCCSc1ccccc1` [UPHD 25], under “4 μM from 2 days post-injection, days 5-11 post-fertilization”, the “larval survival compared to the injured, untreated control” value is reported as “increase larval survival”. Also, the “survival as measured by Kaplan-Meier estimator” value (positive control, all survival assays) is given as “statistically significant”.
